Experimental data as given in patent publication US20240076699A1, “BIOSYNTHESIS OF SUBSTITUTED COMPOUNDS AND CANNABINOIDS” (Invizyne Technologies, Inc., priority 2022, published 2024).

Legend:
[1] = biological target: T1, methionine adenosyltransferase (MAT) from Thermococcus kodakarensis (tk) (Thermococcus kodakarensis, UniProt Q5JF22); settings: 5 mM met or d3-met, 10 μM MAT, 1 h room temperature
T1 sequence (Q5JF22 1-405): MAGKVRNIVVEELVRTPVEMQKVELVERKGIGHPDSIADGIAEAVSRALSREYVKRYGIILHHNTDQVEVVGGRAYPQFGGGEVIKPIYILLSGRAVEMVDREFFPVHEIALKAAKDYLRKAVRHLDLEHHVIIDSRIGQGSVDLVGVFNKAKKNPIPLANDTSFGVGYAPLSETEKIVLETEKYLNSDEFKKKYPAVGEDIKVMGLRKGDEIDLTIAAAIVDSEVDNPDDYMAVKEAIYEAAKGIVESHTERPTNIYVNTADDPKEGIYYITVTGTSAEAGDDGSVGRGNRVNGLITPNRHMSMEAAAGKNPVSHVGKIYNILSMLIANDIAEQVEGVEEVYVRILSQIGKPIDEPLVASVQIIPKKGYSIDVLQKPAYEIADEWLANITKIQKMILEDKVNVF

[2] = biological target: T2, methionine adenosyltransferase (MAT) from Methanocaldococcusjannaschii (mj) (Methanocaldococcus jannaschii, UniProt Q58605); settings: 5 mM met or d3-met, 10 μM MAT, 1 h room temperature
T2 sequence (Q58605 1-406): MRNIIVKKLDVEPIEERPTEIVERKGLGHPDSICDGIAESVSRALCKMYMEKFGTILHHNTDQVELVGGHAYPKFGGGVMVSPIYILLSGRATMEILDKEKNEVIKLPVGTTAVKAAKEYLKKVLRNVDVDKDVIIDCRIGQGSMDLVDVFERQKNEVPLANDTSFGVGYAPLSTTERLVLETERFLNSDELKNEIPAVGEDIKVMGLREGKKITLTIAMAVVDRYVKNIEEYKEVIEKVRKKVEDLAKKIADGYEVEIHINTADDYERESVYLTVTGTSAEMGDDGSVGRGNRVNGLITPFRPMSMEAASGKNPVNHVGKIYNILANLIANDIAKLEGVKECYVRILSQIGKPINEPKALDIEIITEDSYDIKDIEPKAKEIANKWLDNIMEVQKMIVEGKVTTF

[3] = nLC-MS/MS of CBGA and dCBGA samples after one hour; type: in vitro ADME
Method: (§1) Additional samples were subjected to nano-scale liquid chromatographic tandem mass spectrometry (nLC-MS/MS). Samples were prepared using 2 μL of standard and 198 μL of 50:50 water:acetonitrile in 0.1% formic acid. A 1 μL sample was injected.

[4] = results in an inactive metabolite; cited from earlier work
[5] = nLC-MS/MS comparison of CBGA and dCBGA after one hour (degradation); type: in vitro ADME; settings: matrix not stated
Method: as §1
Table 10 compares nLC-MS/MS data for the CBGA samples and dCBGA samples after one hour.
FIG. 26 illustrates a graph comparing CBGA and dCBGA. Sample 1, Sample 2, and Sample 3 are shown left to right for both CBGA and dCBGA.

[6] = Solubility in nonane overlay versus water; type: physicochemical
[7] = biological target: Bovine serum albumin (BSA) (Bos taurus, UniProt P02769); test: BSA binding seen during extraction; settings: reaction mixture extraction
Text: In one embodiment, upon formation of the THCA compound of the present invention, the compound is purified to isolate the produced THCA. The extraction of CBGA and THCA into ethylacetate formed an emulsion which could only be partially broken with the addition of hexane. Bovine serum albumin (BSA) binds both CBGA and THCA tightly and thus not all of the product is recoverable in the organic phase of the purification process. However, acid precipitation of the BSA with the addition of 1% HCl allows for the denaturation of BSA and subsequent unbinding of the CBGA and THCA to allow extraction and purification. In one embodiment, the HCl is added directly to the reaction mixture, which is then incubated for about 10 minutes to assure full denaturation of BSA. The mixture is then centrifuged for about 30 minutes at 4000 g. After centrifuging the mixture, the CBGA and THCA coprecipitate into pelleted form. The pellet is then washed with water until the water reaches a neutral pH. The pellet is then resuspended in methanol using vigorous vortexing. The methanol mixture was rotavapped over a water bath at 40° C., and the resulting oil was resuspended in ethanol. The THCA then precipitates as a brown oil. The reaction mixture is then filtered and washed with water and then resuspended in hexane. The hexane was then rotavapped to remove mass added to the product by excess […]. […]

Chain of Bovine serum albumin (BSA) (P02769 25-607): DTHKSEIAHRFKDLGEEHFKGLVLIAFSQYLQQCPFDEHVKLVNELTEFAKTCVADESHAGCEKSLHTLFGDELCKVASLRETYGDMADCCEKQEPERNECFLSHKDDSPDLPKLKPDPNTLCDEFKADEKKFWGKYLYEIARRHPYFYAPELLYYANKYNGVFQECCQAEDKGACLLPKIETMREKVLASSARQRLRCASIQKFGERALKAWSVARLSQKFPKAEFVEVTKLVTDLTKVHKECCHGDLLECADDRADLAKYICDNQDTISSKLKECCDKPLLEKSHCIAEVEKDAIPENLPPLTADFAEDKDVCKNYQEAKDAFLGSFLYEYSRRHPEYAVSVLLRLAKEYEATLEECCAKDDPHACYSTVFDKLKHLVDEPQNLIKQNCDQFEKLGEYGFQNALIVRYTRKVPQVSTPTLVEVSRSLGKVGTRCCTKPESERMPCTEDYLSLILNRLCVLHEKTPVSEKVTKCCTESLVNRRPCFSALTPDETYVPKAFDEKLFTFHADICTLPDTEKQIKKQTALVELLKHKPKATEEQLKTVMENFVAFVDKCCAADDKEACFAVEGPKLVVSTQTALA

SMILES: [2H]C([2H])([2H])SCC[C@H](N)C(=O)O [d3-met, d3-L-methionine]
- MAT activity on substrate (Pi released per hour) [1]: equally active
- MAT activity on substrate (Pi released per hour) [2]: equally active

SMILES: CCCCCc1cc(O)c(C/C=C(\C)CCC=C(C)C)c(O)c1C(=O)O [dCBGA, d11-cannabigerolic acid]
- degradation after one hour, CBGA compared with dCBGA [3]: CBGA is significantly more degraded after one hour than dCBGA

SMILES: CSCC[C@H](N)C(=O)O [met, methionine, reference compound]
- MAT activity on substrate (Pi released per hour) [1]: equally active
- MAT activity on substrate (Pi released per hour) [2]: equally active

SMILES: C=C(C)[C@@H]1CCC(C)=C[C@H]1c1c(O)cc(CCCCC)cc1O [CBD, cannabidiol]
- metabolites with cleavage of the 5′ pentyl tail [4]: ~25%

SMILES: CCCCCc1cc(O)c(C/C=C(\C)CCC=C(C)C)c(O)c1C(=O)O [CBGA, cannabigerolic acid]
- degradation after one hour compared with dCBGA [5]: significantly more degraded after one hour than dCBGA

SMILES: CCCCCc1cc(O)c(C/C=C(\C)CCC=C(C)C)c(O)c1C(=O)O [CBGA, cannabigerolic acid, reference compound]
- degradation after one hour, CBGA compared with dCBGA [3]: CBGA is significantly more degraded after one hour than dCBGA
- solubility in water compared with nonane [6]: more soluble in water than nonane
- binding by BSA [7]: tightly

SMILES: CCCCCc1cc2c(c(O)c1C(=O)O)[C@@H]1C=C(C)CC[C@H]1C(C)(C)O2 [THCA, tetrahydrocannabinolic acid]
- binding by BSA [7]: tightly

SMILES: CCCc1cc(O)c(C/C=C(\C)CCC=C(C)C)c(O)c1C(=O)O [CBGVA, cannabierovarinic acid]
- solubility in nonane [6]: limited solubility
